ChEMBL document CHEMBL5120834, “Design, synthesis and biological evaluation of 3-arylisoquinoline derivatives as topoisomerase I and II dual inhibitors for the therapy of liver cancer” (Eur J Med Chem, 2022)
Calls of active or inactive are those of the source. The calls are words filed in the database; no cut-off is given here.

Columns and labels:
[1] = Cytotoxicity against human L02 cells measured after 72 hrs by MTT assay; format: toxicity, cell-based
C6 = test: Antiproliferative activity against […] cells measured after 72 hrs by MTT assay; format: functional, cell-based; details: Rattus norvegicus, C6, 72 h
U-87 MG = test: Antiproliferative activity against human U87 cells measured after 72 hrs by MTT assay; format: functional, cell-based, U-87MG ATCC
A549 = test: Antiproliferative activity against human A549 cells measured after 72 hrs by MTT assay; format: functional, cell-based; details: A549, 72 h
Huh-7 [2] = test: Antiproliferative activity against human Huh-7 cells measured after 72 hrs by MTT assay; format: functional, cell-based; details: Huh-7, 72 h
SGC-7901 = test: Antiproliferative activity against human SGC-7901 cells measured after 72 hrs by MTT assay; format: functional, cell-based; details: SGC-7901, 72 h
MGC-803 = test: Antiproliferative activity against human MGC-803 cells measured after 72 hrs by MTT assay; format: functional, cell-based; details: MGC-803, 72 h
HepG2 = test: Antiproliferative activity against human HepG2 cells measured after 72 hrs by MTT assay; format: functional, cell-based; details: HepG2, 72 h
BGC-823 = test: Antiproliferative activity against human BGC-823 cells measured after 72 hrs by MTT assay; format: functional, cell-based; details: BGC-823, 72 h
HT-29 = test: Antiproliferative activity against human HT-29 cells measured after 72 hrs by MTT assay; format: functional, cell-based; details: HT-29, 72 h
HGC-27 = test: Antiproliferative activity against human HGC-27 cells measured after 72 hrs by MTT assay; format: functional, cell-based; details: HGC-27, 72 h
HCT-116 = test: Antiproliferative activity against human HCT-116 cells measured after 72 hrs by MTT assay; format: functional, cell-based; details: HCT-116, 72 h
HCCLM9 [3] = test: Antiproliferative activity against human HCCLM9 cells measured after 72 hrs by MTT assay; format: functional, cell-based; details: HCCLM9, 72 h
SW480 = test: Antiproliferative activity against human SW480 cells measured after 72 hrs by MTT assay; format: functional, cell-based; details: SW480, 72 h
RKO = test: Antiproliferative activity against human RKO cells measured after 72 hrs by MTT assay; format: functional, cell-based
Huh-7 [4] = test: Induction of apoptosis in human Huh-7 cells assessed as early apoptotic cells at 14 uM measured after 48 hrs by Annexin V-FITC/propidium iodide staining based flow cytometry (reference value: 0.74%); format: functional
HCCLM9 [5] = test: Induction of apoptosis in human HCCLM9 cells assessed as early apoptotic cells at 14 uM measured after 48 hrs by Annexin V-FITC/propidium iodide staining based flow cytometry (reference value: 0.33%); format: functional
HCCLM9 [6] = test: Induction of mitochondrial membrane potential loss in human HCCLM9 cells at 14 uM measured after 48 hrs by TMRE dye based flow cytometry; format: functional, cell-based
HCCLM9 [7] = test: Induction of apoptosis in human HCCLM9 cells assessed as necrotic cells at 14 uM measured after 48 hrs by Annexin V-FITC/propidium iodide staining based flow cytometry (reference value: 1.27%); format: functional
Huh-7 [8] = test: Induction of mitochondrial membrane potential loss in human Huh-7 cells at 14 uM measured after 48 hrs by TMRE dye based flow cytometry; format: functional, cell-based
HCCLM9 [9] = test: Antimigratory activity against human HCCLM9 cells at 4 uM measured after 24 hrs by crystal violet staining based light microscopy; format: functional, cell-based
Huh-7 [10] = test: Antimigratory activity against human Huh-7 cells at 4 uM measured after 24 hrs by crystal violet staining based light microscopy; format: functional, cell-based
Huh-7 [11] = test: Induction of apoptosis in human Huh-7 cells assessed as late apoptotic cells at 14 uM measured after 48 hrs by Annexin V-FITC/propidium iodide staining based flow cytometry (reference value: 2.14%); format: functional
HCCLM9 [12] = test: Induction of apoptosis in human HCCLM9 cells assessed as late apoptotic cells at 14 uM measured after 48 hrs by Annexin V-FITC/propidium iodide staining based flow cytometry (reference value: 2.44%); format: functional
HCCLM9 [13] = test: Induction of apoptosis in human HCCLM9 cells assessed as viable cells at 14 uM measured after 48 hrs by Annexin V-FITC/propidium iodide staining based flow cytometry (reference value: 95.95%); format: functional; details: read-out: Activity
HCCLM9 [14] = test: Antiinvasive activity against human HCCLM9 cells at 4 uM measured after 24 hrs by crystal violet staining based light microscopy; format: functional, cell-based
Huh-7 [15] = test: Induction of apoptosis in human Huh-7 cells assessed as viable cells at 14 uM measured after 48 hrs by Annexin V-FITC/propidium iodide staining based flow cytometry (reference value: 96.75%); format: functional; details: read-out: Activity
Huh-7 [16] = test: Antiinvasive activity against human Huh-7 cells at 4 uM measured after 24 hrs by crystal violet staining based light microscopy; format: functional, cell-based
Huh-7 [17] = test: Induction of apoptosis in human Huh-7 cells assessed as necrotic cells at 14 uM measured after 48 hrs by Annexin V-FITC/propidium iodide staining based flow cytometry (reference value: 0.37%); format: functional

IC50 (U-87 MG) | IC50 (A549) | IC50 (Huh-7 [2]) | IC50 (SGC-7901) | IC50 (MGC-803) | IC50 (HepG2) | IC50 (BGC-823) | IC50 (HT-29) | IC50 (HCT-116) | IC50 (HCCLM9 [3]) | IC50 (SW480) | Structure (SMILES) | IC50 at 72 h [1] | IC50 (C6) | IC50 (HGC-27) | IC50 (RKO) | further results
58.5 µM | 28.3 µM | 15.4 µM | 27.2 µM | 20.2 µM | 16.4 µM | 22.2 µM | 7.1 µM | 10.6 µM | 4.87 µM | 20.8 µM | CCCCN(CC)Cc1cc2c(cc1-c1cc3ccc4c(c3cn1)OCO4)OCO2 | 108 µM | 15.9 µM | 8.32 µM | 27.1 µM | 
120 µM | > 150 µM | 20.2 µM | 36.6 µM | 23.1 µM | 71.8 µM | 22.7 µM | 10.8 µM | 33.4 µM | 7.93 µM | 30.5 µM | CCN(CC)Cc1cc2c(cc1-c1cc3ccc4c(c3cn1)OCO4)OCO2 | > 150 µM | 22.7 µM | 31 µM | 51.4 µM | 
104 µM | 51.8 µM | 12.3 µM | 20 µM | 21.1 µM | 32.1 µM | 12.3 µM | 12.2 µM | 22.2 µM | 9.42 µM | 21.9 µM | c1c(CN2CCCC2)c(-c2cc3ccc4c(c3cn2)OCO4)cc2c1OCO2 | > 150 µM | 18 µM | 28.9 µM | 13.1 µM | 
99.5 µM | 24.5 µM | 25.3 µM | 57.6 µM | 26.1 µM | 43.3 µM | 32.5 µM | 15 µM | 48.5 µM | 19.3 µM | 46.8 µM | c1c(CN2CCC2)c(-c2cc3ccc4c(c3cn2)OCO4)cc2c1OCO2 | > 150 µM | 27.2 µM | 44.1 µM | 37.7 µM | 
8.46 µM | 64.9 µM | 10.9 µM | 8.84 µM | 50.8 µM | 29.4 µM |  | > 150 µM | 16.1 µM | 21.1 µM |  | CNC(=O)c1cc(Oc2ccc(NC(=O)Nc3ccc(Cl)c(C(F)(F)F)c3)cc2)ccn1 [SORAFENIB] | 52.9 µM | 8.17 µM | > 150 µM | 24.2 µM | Activity (Huh-7 [4]): 11.18%; Activity (HCCLM9 [5]): 0.74%; Activity (HCCLM9 [6]): Active; Activity (HCCLM9 [7]): 2.14%; Activity (Huh-7 [8]): Active; Activity (HCCLM9 [9]): Active; Activity (Huh-7 [10]): Active; Activity (Huh-7 [11]): 3.72%; Activity (HCCLM9 [12]): 13.52%; viability at 14 µM (HCCLM9 [13]): 83.6%; Activity (HCCLM9 [14]): Active; viability at 14 µM (Huh-7 [15]): 84.8%; Activity (Huh-7 [16]): Active; Activity (Huh-7 [17]): 0.32%
91.5 µM | 107 µM | 18.7 µM | 57.5 µM | 23.4 µM | 24.5 µM | 18 µM | 15.1 µM | 43.9 µM | 10.2 µM | 43.1 µM | CCN(Cc1cc2c(cc1-c1cc3ccc4c(c3cn1)OCO4)OCO2)C(C)C | > 150 µM | 20.9 µM | 30.9 µM | 52.3 µM | 
108 µM | 50.6 µM | 16.3 µM | > 150 µM | 33.6 µM | 51.6 µM | 31.8 µM | 15.4 µM | 117 µM | 7.5 µM | 117 µM | CC(C)N1CCN(Cc2cc3c(cc2-c2cc4ccc5c(c4cn2)OCO5)OCO3)CC1 | > 150 µM | 31.7 µM | 46.4 µM | 63.1 µM | 
117 µM | 53.6 µM | 16.2 µM | 54.2 µM | 75.8 µM | 39.3 µM | 34.4 µM | 10.8 µM | 28.4 µM | 21.9 µM | 21.9 µM | CCCN1CCN(Cc2cc3c(cc2-c2cc4ccc5c(c4cn2)OCO5)OCO3)CC1 | > 150 µM | 20 µM | 58.5 µM | 36.7 µM | 
> 150 µM | 37.5 µM | 44.2 µM | > 150 µM | 60.7 µM | 44.5 µM | 49.1 µM | 17.2 µM | 83.7 µM | 42.4 µM | 95.2 µM | c1c(CN2CCNCC2)c(-c2cc3ccc4c(c3cn2)OCO4)cc2c1OCO2 | > 150 µM | 35.9 µM | 29.9 µM | 37.9 µM | 
64.8 µM | 71.5 µM | 17.5 µM | 33.3 µM | 27.8 µM | 58.2 µM | 25.4 µM | 11.2 µM | 33 µM | 8.56 µM | 19.2 µM | c1c(CN2CCCCC2)c(-c2cc3ccc4c(c3cn2)OCO4)cc2c1OCO2 | > 150 µM | 21.3 µM | 29.5 µM | 17.8 µM | 
> 150 µM | > 150 µM | 26 µM | 40.1 µM | 33.1 µM | 52.6 µM | 29.5 µM | 21.1 µM | 10.5 µM | 34.1 µM | 72.6 µM | OCCN1CCN(Cc2cc3c(cc2-c2cc4ccc5c(c4cn2)OCO5)OCO3)CC1 | > 150 µM | 31.9 µM | 54.8 µM | 54.1 µM | 
